In PubChem BioAssay (NCI):
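Compound exposure: 48 hours, 5 concentrations, 96-well plates. TGI denotes the concentration required for complete inhibition of growth.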 Where a SMILES comes first, the peptide text is derived from it. The star is where a group is joined. Boc = CC(C)(C)OC(=O)*; OBn = c1ccc(CO*)cc1

Tests used:
Test in all cases: NCI tumour cell line growth inhibition, 48 h
A549 NSCLC = tested on: A549 NSCLC
CCRF-CEM leukemia = tested on: CCRF-CEM leukemia
COLO 205 colon = tested on: COLO 205 colon
HCT-116 colon = tested on: HCT-116 colon
HOP-92 NSCLC = tested on: HOP-92 NSCLC
IGROV1 ovarian = tested on: IGROV1 ovarian
KM12 colon = tested on: KM12 colon
LOX IMVI melanoma = tested on: LOX IMVI melanoma
MOLT-4 leukemia = tested on: MOLT-4 leukemia
NCI-H226 lung = tested on: NCI-H226 lung
OVCAR-8 ovarian = tested on: OVCAR-8 ovarian
SF-539 CNS = tested on: SF-539 CNS
SK-OV-3 ovarian = tested on: SK-OV-3 ovarian
SNB-75 CNS = tested on: SNB-75 CNS
T-47D breast = tested on: T-47D breast
U251 CNS = tested on: U251 CNS
UACC-257 melanoma = tested on: UACC-257 melanoma
UACC-62 melanoma = tested on: UACC-62 melanoma
HL-60(TB) leukemia = tested on: HL-60(TB) leukemia

| SMILES | TGI (A549 NSCLC) | TGI (CCRF-CEM leukemia) | TGI (COLO 205 colon) | TGI (HCT-116 colon) | TGI (HOP-92 NSCLC) | TGI (IGROV1 ovarian) | TGI (KM12 colon) | TGI (LOX IMVI melanoma) | TGI (MOLT-4 leukemia) | TGI (NCI-H226 lung) | TGI (OVCAR-8 ovarian) | TGI (SF-539 CNS) | TGI (SK-OV-3 ovarian) | TGI (SNB-75 CNS) | TGI (T-47D breast) | TGI (U251 CNS) | TGI (UACC-257 melanoma) | TGI (UACC-62 melanoma) | TGI (HL-60(TB) leukemia) |
| --- | --- | --- | --- | --- | --- | --- | --- | --- | --- | --- | --- | --- | --- | --- | --- | --- | --- | --- | --- |
| CCN(CC)C1Oc2cc3c(cc2C(c2ccc(OC)cc2)C1C)OCO3 (centres undefined) | 74 µM | 34 µM | 34.5 µM | 29.2 µM | 57.9 µM | 86.9 µM | 53.2 µM | 34.1 µM | 41.8 µM | 54.7 µM | 44.9 µM | 40.1 µM | 97.4 µM | 59.7 µM | 77 µM | 54.9 µM | 35.1 µM | 42.1 µM |  |
| COC(=O)Nc1nc2ccc(S(=O)(=O)NC(CC(C)C)C(=O)OC)cc2[nH]1 (centres undefined) | > 100 µM | > 100 µM | 59.3 µM | 19.1 µM | > 100 µM | 6.45 µM | 12.6 µM | > 100 µM | 29.2 µM | > 100 µM | > 100 µM | 38.3 µM | > 100 µM | 8.16 µM | > 100 µM | > 100 µM |  | > 100 µM | 8.04 µM |
| CCC(C)C(C(=O)N/N=C1/SCC(=O)N1c1ccccc1)C(=O)N/N=C1/SCC(=O)N1c1ccccc1 (centres undefined) | > 100 µM | > 100 µM | > 100 µM | 58.9 µM | 45.2 µM | > 100 µM | 93.9 µM | > 100 µM | > 100 µM |  | > 100 µM | > 100 µM | 74.6 µM | > 100 µM | > 100 µM | > 100 µM | > 100 µM | 36.9 µM | > 100 µM |
| CN(C)c1ccc(/C=N\NC(=O)c2ccccc2Nc2ccccc2C(=O)N/N=C/c2ccc(N(C)C)cc2)cc1 | > 100 µM | > 100 µM | > 100 µM | > 100 µM | > 100 µM | > 100 µM | > 100 µM | > 100 µM | > 100 µM | > 100 µM | > 100 µM | 81.9 µM | > 100 µM | > 100 µM | > 100 µM | > 100 µM | > 100 µM | > 100 µM |  |
| CO[C@H]1c2cccc3cccc(c23)[C@@H]1n1[nH]c(=O)n(C(C)(C)C)c1=O | > 100 µM | > 100 µM | > 100 µM | > 100 µM |  | > 100 µM | > 100 µM | > 100 µM | > 100 µM | > 100 µM | > 100 µM | > 100 µM | > 100 µM | > 100 µM | > 100 µM | > 100 µM | > 100 µM | > 100 µM | > 100 µM |
| C/C1=C/C(C)CC(C)OC(=O)C(C)NC(=O)C(Cc2ccc(O)c(I)c2)N(C)C(=O)CNC(=O)C(C)C1 (centres undefined) | > 100 µM | < 0.01 µM | > 100 µM | > 100 µM | 0.0654 µM | 0.0236 µM | > 100 µM | < 0.01 µM | > 52.7 µM |  | > 100 µM | 4.94 µM | 2.16 µM | < 0.0141 µM | > 100 µM | 0.0707 µM | 5.97 µM | > 20.9 µM | < 0.01 µM |
| CC1=NN(C(=O)CC(=O)Nc2ccc(C)cc2)C(=O)C1N=Nc1ccc(C(=O)O)cc1 (centres undefined) | > 100 µM | > 100 µM | > 100 µM | > 100 µM | > 100 µM | > 100 µM | > 100 µM | > 100 µM |  |  | > 100 µM | > 100 µM |  | > 100 µM | > 100 µM | > 100 µM | > 100 µM | > 100 µM | > 100 µM |
| CC(C)C(NC(=O)C(Cc1ccccc1)NC(=O)OC(C)(C)C)C(=O)NCC(=O)OCc1ccccc1 (stereo not drawn) (Boc-Phe-Val-Gly-OBn; configuration not given here) |  | 43 µM | 35.5 µM | 40 µM |  | 27.8 µM |  | 30.2 µM | 39.7 µM |  | 35.6 µM | 43.3 µM | 28 µM | 36 µM | 36.7 µM | 32.2 µM | 41.9 µM | 30.9 µM | 34.4 µM |
| c1ccc2c(C3CCN(CCN4CCOCC4)C3)c[nH]c2c1 (centres undefined) | > 100 µM | > 100 µM |  | > 100 µM | > 100 µM | > 100 µM | > 100 µM | > 100 µM |  |  | > 100 µM |  | > 100 µM | > 100 µM | > 100 µM | > 100 µM | > 100 µM | > 100 µM | > 100 µM |
| ClC1(Cl)C(c2ccccc2)C1c1ccccc1 (centres undefined) | > 100 µM |  | > 100 µM | > 100 µM |  |  | > 100 µM | 93 µM | > 100 µM | 33.9 µM | 77.4 µM |  | 55.7 µM | > 100 µM | > 100 µM | > 100 µM | > 100 µM | > 100 µM |  |
| CNc1c2cccc(C)c2nc2c(C(=O)NCCN(C)C)cccc12 | 0.331 µM |  | 0.278 µM | 0.453 µM | 0.522 µM | 10.6 µM | 1.67 µM | 0.391 µM | 0.306 µM | 0.847 µM | 0.297 µM | 0.245 µM | 1.94 µM | 0.592 µM | 0.675 µM | 0.651 µM | 1.24 µM | 0.402 µM |  |
| OC1(CCc2ccccc2)COC(C(F)(F)F)(C(F)(F)F)C1 (centres undefined) | > 100 µM | > 100 µM | > 100 µM | > 100 µM |  | > 100 µM | > 100 µM | > 100 µM | > 100 µM | > 100 µM | > 100 µM | > 100 µM | > 100 µM | > 100 µM | > 100 µM | > 100 µM |  | > 100 µM | > 100 µM |
| COc1nc(C)nc2sc3c(c12)CCCC3 |  |  | > 100 µM | > 100 µM |  | > 100 µM | > 100 µM | > 100 µM | > 100 µM | > 100 µM | > 100 µM |  |  | > 100 µM | > 100 µM | > 100 µM | > 100 µM | > 100 µM | > 100 µM |
| CC(=O)O[C@@H]1CC[C@@]2(C)C(CC[C@H]3[C@@H]4CC[C@H]([C@H](C)CCc5nc6ccc(C)cc6[nH]5)[C@@]4(C)CC[C@@H]32)C1 (some centres undefined) | > 100 µM | 8.47 µM | > 100 µM | > 100 µM | > 100 µM | 19.1 µM | 31.7 µM | > 100 µM | > 100 µM | 48.1 µM | > 100 µM | > 100 µM | > 100 µM | 24.1 µM | 4.63 µM | > 100 µM | > 100 µM | > 100 µM |  |
